The record followed here is patent publication US4916130A, “Platelet agglutination-inhibiting agent” (Green Cross Corporation, priority 1987, dated 1990).

The term IC50 denotes the midpoint of a concentration-inhibition curve.

Assay [1] concerns platelets (platelet-rich plasma), agglutination induced by collagen. The experiment in a line: Inhibition of platelet agglutination induced by collagen (rat PRP, aggligometer). The following applies: 37° C., collagen 0.14 mg/ml, from inhibition ratio for maximum thrombotic agglutination. Format: cell-based. As for the experimental part: (§1) Blood was collected from the abdominal aorta of a sacrificed rat. The obtained blood was then mixed with a solution of 3.9% sodium citrate at a ratio of one part by volume of sodium citrate solution to nine parts by volume of the blood. The mixture was […] at 116×g for 10 minutes to give a platelet-rich plasma (PRP). The supernatant was further centrifuged at 1,638×g for 10 minutes to give a platelet-poor plasma (PPP). The PRP was diluted with the PPP so as to give a platelet concentration of […].
(§2) The agglutination of platelets was determined with an aggligometer (RINKADENKI HUSM type). Sample solutions of 25 μl were obtained by dissolving each test compound in methanol and adding the resulting solution to a physiological saline solution so as to give a final methanol concentration of 1%. These sample solutions were then added to 225 μl of PRP preliminarily maintained at 37° C. while stirring at 800 rpm. Three minutes thereafter, 50 μl of an agglutination inducer was added thereto while continuously stirring.
Collagen, when employed as the agglutination inducer, was added at a concentration of 0.14 mg/ml. The 50% inhibition concentration of each test compound was calculated from the inhibition ratio thereof for the maximum thrombotic agglutination.

The subject of assay [2] is platelets (platelet-rich plasma), agglutination induced by arachidonic acid. In words: Inhibition of platelet agglutination induced by arachidonic acid (rat PRP, aggligometer). Format: cell-based. The following applies: 37° C., arachidonic acid 1 mM, 50% effective concentration from onset time of agglutination vs control group. As for the experimental part:
as §1, §2
Arachidonic acid, when employed as the agglutination inducer, was added at a concentration of 1 mM. The 50% effective concentration of each test compound was calculated by comparing the onset time from the addition of the arachidonic acid to the initiation of the agglutination with that of the control group.

For the molecule `CCC=CC(=O)NCCSSCCNC(=O)C=CCC` [Compound 1, [SCH2 CH2 NH--COCH=CHCH2 CH3]2], the 50% inhibitory concentration (IC50) in assay [1] is 15 µM; in assay [2] it was 13 µM.

Take `CCCC=CC(=O)NCCSSCCNC(=O)C=CCCC` [Compound 2, [SCH2 CH2 NH--COCH=CH(CH2)2 CH3]2]: the figures for the IC50 in assay [1] and in assay [2] were 4 µM and 6.7 µM, respectively.

In the case of `CCCCC=CC(=O)NCCSSCCNC(=O)C=CCCCC` [Compound 3, [SCH2 CH2 NH--COCH=CH(CH2)3 CH3]2], the IC50 was 26 µM in assay [1] and 17 µM in assay [2].

`CCCCCC=CC(=O)NCCSSCCNC(=O)C=CCCCCC` [Compound 4, [SCH2 CH2 NH--COCH=CH(CH2)4 CH3]2]: the IC50 amounted to 290 µM in assay [1] and 135 µM in assay [2].
